Test [1] concerns NRASmut melanoma cells (WM3000 or M93-047) tumors. Put plainly: NRAS mutant melanoma xenograft tumors in NSG mice. Conditions: 2.5 mg/kg i.p. q.d. The format is in vivo. On the procedure:
FIGS. 2a-h. […] (FIGS. 2a-c) NRASmut melanoma cells (FIG. 2a), BRAF-V600E/NRAS mutant cells derived from melanoma patients resistant to BRAF/MEK inhibitors (FIG. 2b), or non-transformed melanocytes and fibroblasts (FIG. 2c) were treated with 6-thio-dG for 7 days. Cell viability was measured by Alamar Blue assay and calculated relative to DMSO-treated cells. (FIG. 2d) NRASmut melanoma cells and non-transformed human fibroblasts were treated with 1 or 5 μM 6-thio-dG for 7 or 14 days. Cell death was assessed by PSVUe staining. Percent of apoptotic cells is shown. (FIG. 2e) Cells were treated with DMSO or 1 μM 6-thio-dG for 14 days and telomere length was assessed by Southern blotting of TRF. Mean TRF length expressed as kilobase pairs is indicated at the bottom. […] (FIG. 2f) ROS production was measured by H2DCFDA fluorescence and normalized to MSO treated cells. (FIG. 2g) DNA damage was assessed by γH2AX staining. […] Tumor volume was measured and average tumor volume (n=4)±SEM was plotted vs. time.
green) and EtBr (dead cells; red) and imaged using an inverted microscope (4×; scale bar=250 μm). […] P values were calculated using unpaired Student's t-test. * p<0.05, **p<0.01, ***p<0.005, when comparing vehicle control vs. combination treatment groups. […] Kaplan Meier survival curves of mice treated for 14 days. p-values were calculated by Mantel-Cox logrank test; * p<0.05, **p<0.01, ***p<0.005. […]

A further test concerns NRAS mutant SKNAS cells. Put plainly: Cell death, Annexin V/PI. The test is classed as cell-based, human. Conditions: single agents or combination; 1 μM 6-thio-dG, 5 μM Gam.
Test [2] deals with NRAS mutant melanoma cells. Description: Telomere dysfunction-induced foci (TIF) assay. The format is cell-based, human. Conditions: 6-thio-dG for 7 days. On the procedure:
Supplementary FIGS. 6a-b. […] NRAS mutant melanoma cells WM3000 were transduced with TERT shRNA and treated with NAC […] for 7 days. (Supplementary FIG. 6a) TIFs were assessed by indirect immunofluorescence combined with fluorescence in situ hybridization (FISH). Representative images are shown (scale bar=10 μm). (Supplementary FIG. 6b) Quantification of TIF positive cells. Cells were scored as TIF positive when three or more y-H2AS foci (green) were co-localizing with telomere foci (red). Data represent average of thirteen fields imaged +/−SD.
Supplementary FIGS. 8a-d. NRAS mutant melanoma cells are sensitive to the telomere uncapping agent 6-thio-dG. NRAS^mut melanoma cells were treated with 6-thio-dG for 6, 12 or 18 days. (Supplementary FIG. 8a) Relative cell number was assessed by Cyrstal Violet assay and calculated relative to DMSO-treated cells. […] (Supplementary FIG. 8c) NRAS^mut cells were treated with 6-thio-dG for 7 days and telomere-induced foci (TIF) were determined by indirect immunofluorescence combined with fluorescence in situ hybridization (FISH). […] (Supplementary FIG. 8d) Quantification of TIF assay. Cells were scored as TIF-positive when four or more γ-H2AX foci (green) were co-localizing with telomere foci (red). […] P values were calculated by unpaired Student's t-test.
DNA damage and telomere dysfunction assay (TIF). […] Mean fluorescence staining was quantified by flow cytometry. […]

The text below walks through data of patent US20210113602A1, “USE OF 6-THIO-2'-DEOXYGUANOSINE (6-THIO-dG) TO TREAT MELANOMA” (The Board of Regents of the University of Texas System, priority 2018, published 2021).

Entries after “also recorded” stand apart in the source; their conditions may differ.

For `Nc1nc2c(ncn2[C@H]2C[C@H](O)[C@@H](CO)O2)c(=S)[nH]1` [6-thio-dG, 6-thio-2′-deoxy-guanosine], the “tumor growth, single agent” value in test [1] was “slowed the growth of tumors; also recorded: slowed, but did not completely abrogated tumor growth”. Besides, the cell death entry with NRAS mutant SKNAS cells is “triggered significant death”. For the same molecule, in test [2], the TIFs result was “increased levels”.
